From publication PMC3446820 (Journal of medicinal chemistry, 2012)
Where two headings read alike, the source gives them in different places.

Assays:
P. berghei [1] = conditions: mice, oral dosing; ref [29]; cited from earlier work
[2] = human liver microsomes; ref Gujjar et al. [29]; cited from earlier work
PfDHODH = target: T1, PfDHODH (Plasmodium falciparum, UniProt Q08210); test: biochemical; format: biochemical; conditions: for fold less potent against PfDHODH than the comparable triazolopyrimidine 1: reduction in binding affinity/activity relative to 1
T1 sequence (Q08210 24-569): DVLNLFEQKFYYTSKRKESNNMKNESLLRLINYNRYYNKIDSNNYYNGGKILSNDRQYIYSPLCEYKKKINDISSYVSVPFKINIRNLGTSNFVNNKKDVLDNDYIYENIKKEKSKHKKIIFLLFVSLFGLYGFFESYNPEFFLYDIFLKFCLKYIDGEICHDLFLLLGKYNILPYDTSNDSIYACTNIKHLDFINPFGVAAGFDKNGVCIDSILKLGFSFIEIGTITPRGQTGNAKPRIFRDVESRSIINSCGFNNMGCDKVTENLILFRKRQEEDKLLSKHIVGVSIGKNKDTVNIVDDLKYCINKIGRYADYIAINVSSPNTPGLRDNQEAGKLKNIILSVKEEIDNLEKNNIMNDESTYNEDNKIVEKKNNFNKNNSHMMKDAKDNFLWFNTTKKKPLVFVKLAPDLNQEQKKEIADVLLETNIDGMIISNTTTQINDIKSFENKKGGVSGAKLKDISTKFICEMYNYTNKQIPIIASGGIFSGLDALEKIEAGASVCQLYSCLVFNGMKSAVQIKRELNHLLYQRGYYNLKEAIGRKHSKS

[3] = In vitro metabolic stability in mouse liver microsomes; format: in vitro ADME
P. berghei [4] = test: P. berghei mouse in vivo efficacy model; set-up: species or system Plasmodium berghei; conditions: mice
[5] = Mouse pharmacokinetics after single oral dose; format: in vivo; conditions: mice
PbDHODH = PbDHODH (Plasmodium berghei, UniProt A0A509AEH5); test: PbDHODH steady-state colorimetric DCIP enzyme assay; format: biochemical; conditions: relative to 2
[6] = In vitro metabolic stability in human liver microsomes; format: in vitro ADME
P. falciparum 3D7 cells = conditions: read-out: EC50 (μM) Pf3D7; clone 3D7; ref [27],[29]; cited from earlier work
hDHODH = hDHODH (Homo sapiens, UniProt Q02127); conditions: cited from earlier work
Chain of hDHODH (Q02127 whole entry): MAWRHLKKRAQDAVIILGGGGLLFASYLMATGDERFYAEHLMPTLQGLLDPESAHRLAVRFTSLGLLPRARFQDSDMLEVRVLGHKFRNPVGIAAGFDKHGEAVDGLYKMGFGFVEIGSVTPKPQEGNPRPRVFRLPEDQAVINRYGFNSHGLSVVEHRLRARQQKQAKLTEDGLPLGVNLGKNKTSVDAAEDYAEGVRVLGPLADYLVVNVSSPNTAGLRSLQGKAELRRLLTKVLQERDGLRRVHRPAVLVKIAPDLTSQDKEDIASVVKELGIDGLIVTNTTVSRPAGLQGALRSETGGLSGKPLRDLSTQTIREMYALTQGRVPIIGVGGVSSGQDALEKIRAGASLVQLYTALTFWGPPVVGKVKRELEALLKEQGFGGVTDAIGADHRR

Chain of PbDHODH (A0A509AEH5 132-517 limits assumed): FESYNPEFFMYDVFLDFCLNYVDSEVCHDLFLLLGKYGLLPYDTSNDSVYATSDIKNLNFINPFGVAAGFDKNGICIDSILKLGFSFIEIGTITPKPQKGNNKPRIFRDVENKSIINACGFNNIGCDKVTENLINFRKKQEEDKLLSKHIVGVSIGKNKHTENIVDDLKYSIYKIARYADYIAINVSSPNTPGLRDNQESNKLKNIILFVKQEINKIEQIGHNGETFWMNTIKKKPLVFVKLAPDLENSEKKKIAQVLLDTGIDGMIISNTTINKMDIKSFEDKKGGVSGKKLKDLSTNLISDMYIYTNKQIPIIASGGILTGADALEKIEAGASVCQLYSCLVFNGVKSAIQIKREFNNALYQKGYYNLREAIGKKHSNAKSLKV

Cc1cc(Nc2ccc(C(F)(F)F)cc2)n2ncnc2n1 [Compound 2, 5-methyl-N-(4-(trifluoromethyl)phenyl)-[1,2,4]triazolo[1,5-a]pyrimidin-7-amine]
in vivo efficacy in the P. berghei model (in words) (P. berghei [1]): able to suppress parasitemia
Predicted EH [2]: 0.29

Cc1cc(NC(=O)c2ccc(C(F)(F)F)cc2)n2ncnc2n1 [Compound 5]
IC50 (PfDHODH): > 100 µM
PfDHODH activity (in words) (PfDHODH): loss of activity

Cc1nc(Nc2ccc3ccccc3c2)c2cn[nH]c2n1 [Compound 10, 6-Methyl-N-(naphthalen-2-yl)-1H-pyrazolo[3,4-d]pyrimidin-4-amine]
IC50 (PfDHODH): > 100 µM
PfDHODH activity (in words) (PfDHODH): inactivated

Cc1nc(Nc2ccc3ncccc3c2)c2nc[nH]c2n1 [Compound 14, N-(2-Methyl-9H-purin-6-yl)quinolin-6-amine]
IC50 (PfDHODH): > 25 µM

Cc1nc(Nc2ccc3ccccc3c2)c2nc[nH]c2n1 [Compound 9, 2-Methyl-N-(naphthalen-2-yl)-9H-purin-6-amine]
fold less potent against PfDHODH than the comparable triazolopyrimidine 1 (PfDHODH): ~ 9 fold

Cc1cc(Nc2ccc(C(F)(F)F)cc2)n2ccnc2n1 [Compound 16, 7-Methyl-N-(4-(trifluoromethyl)phenyl)imidazo[1,2-a]pyrimidin-5-amine]
Putative metabolites ([3]; mouse liver microsomes): None detected
Predicted EH ([3]; mouse liver microsomes, predicted in vivo hepatic extraction ratio): 0.59
in vitro clearance class ([3]; mouse microsomes): intermediate
microsomal CLint at 1 μM ([3]; mouse, pooled mouse liver microsomes): 34 µL/min/mg
in vivo efficacy in the P. berghei model (in words) (P. berghei [4]): suppresses parasites in vivo
adverse reactions following oral administration ([5]; 10 mg/kg oral): No adverse reactions were observed
peak plasma concentrations ([5]; single oral dose 10 mg/kg): 3.9 µM
time plasma levels maintained above 1 μM ([5]; single oral dose 10 mg/kg): about 4 h
fold more potent against PfDHODH than the equivalent triazolopyrimidine 2 (PfDHODH; relative to 2): 4 fold
fold better potency against PbDHODH than 2 (PbDHODH): 2 fold
Putative metabolites ([6]; human liver microsomes): None detected
Predicted EH ([6]; human liver microsomes, predicted in vivo hepatic extraction ratio): 0.21
microsomal CLint at 1 μM ([6]; human, pooled human liver microsomes): 4.7 µL/min/mg

Cc1cc(Nc2ccc3ccccc3c2)n2nccc2n1 [Compound 8, 5-Methyl-N-(naphthalen-2-yl)pyrazolo[1,5-a]pyrimidin-7-amine]
fold less potent against PfDHODH than the comparable triazolopyrimidine 1 (PfDHODH): ~ 8.5 fold

Cc1nc(Nc2n[nH]cc2C#N)c2nc[nH]c2n1 [Compound 15, 3-(2-Methyl-9H-purin-6-ylamino)-1H-pyrazole-4-carbonitrile]
IC50 (PfDHODH): > 100 µM
PfDHODH activity (in words) (PfDHODH): inactive

Cc1cc(Nc2ccc3ccccc3c2)n2ccnc2n1 [Compound 6, 7-Methyl-N-(naphthalen-2-yl)imidazo[1,2-a]pyrimidin-5-amine]
fold less potent against PfDHODH than the comparable triazolopyrimidine 1 (PfDHODH): 3 fold

Cc1cc(NC(=O)c2ccccc2)n2ncnc2n1 [Compound 4, N-(5-methyl-[1,2,4]triazolo[1,5-a]pyrimidin-7-yl)benzamide]
IC50 (PfDHODH): > 100 µM
PfDHODH activity (in words) (PfDHODH): loss of activity

Cc1cc(Nc2ccc3ccccc3c2)n2ncnc2c1 [Compound 7, 7-Methyl-N-(naphthalen-2-yl)-[1,2,4]triazolo[1,5-a]pyridin-5-amine]
fold less potent against PfDHODH than the comparable triazolopyrimidine 1 (PfDHODH): 100 fold

Cc1cc(Nc2ccc3ccccc3c2)n2ncnc2n1 [Compound 1, (5-methyl-[1,2,4]triazolo[1,5-a]pyrimidin-7-yl)naphthalene-2-ylamine]
in vivo efficacy in the P. berghei model (in words) (P. berghei [1]): no anti-parasite activity
EC50 (P. falciparum 3D7 cells): 0.076 µM
IC50 (hDHODH; read-out: IC50 (μM) hDHODH, ref [27],[29]): > 100 µM
activity against human DHODH (in words) (hDHODH; ref [26]–[28]): without inhibiting human DHODH

Cc1cc(Nc2ccc3ccccc3c2)c2nncn2n1 [Compound 11, 6-Methyl-N-(naphthalen-2-yl)-[1,2,4]triazolo[4,3-b]pyridazin-8-amine]
IC50 (PfDHODH): > 50 µM
PfDHODH activity (in words) (PfDHODH): inactivated
